The values below come from ChEMBL document CHEMBL1671660, “Efficacy of iclaprim against wild-type and thymidine kinase-deficient methicillin-resistant Staphylococcus aureus isolates in an in vitro fibrin clot model” (Antimicrob Agents Chemother, 2009).

Each structure is given as a SMILES string. Values after ≈ are worked out from the molar mass of the structure shown. Active and inactive are the calls of the source. The rule behind the calls is not given here.

The test system of data set [1] is Staphylococcus aureus. Briefly: Bactericidal activity against methicillin-resistant Staphylococcus aureus AW6 infected in in vitro rat fibrin clot model assessed as reduction in bacterial colony at 40 ug/ml after 48 hrs. Format: functional, organism-based.
The subject of data set [2] is Staphylococcus aureus. Kind of data set: Bactericidal activity against thymidine kinase-deficient methicillin-resistant Staphylococcus aureus AH1252 infected in in vitro rat fibrin clot model assessed as reduction in bacterial colony at 40 ug/ml after 48 hrs. It counts as functional, organism-based.
The subject of data set [3] is Staphylococcus aureus. Briefly: Bacteriostatic activity against methicillin-resistant Staphylococcus aureus AW6 infected in in vitro human fibrin clot model assessed as reduction in bacterial colony at 40 ug/ml after 24 hrs. It counts as functional, organism-based.
Data set [4] deals with Staphylococcus aureus. Kind of data set: Bactericidal activity against thymidine kinase-deficient methicillin-resistant Staphylococcus aureus AH1252 infected in in vitro rat fibrin clot model assessed as reduction in bacterial colony at 40 ug/ml after 24 hrs. It counts as functional, organism-based.
Data set [5] deals with Staphylococcus aureus. Briefly: Bactericidal activity against methicillin-resistant Staphylococcus aureus AW6 at 40 ug/ml by time kill analysis in presence of 50% rat serum. Format: functional, organism-based.
Data set [6] relates to Staphylococcus aureus. Kind of data set: Bactericidal activity against methicillin-resistant Staphylococcus aureus AW6 at 40 ug/ml by time kill analysis in presence of 50% human serum. Format: functional, organism-based.
In data set [7] the test system is Staphylococcus aureus. Kind of data set: Bactericidal activity against thymidine kinase-deficient methicillin-resistant Staphylococcus aureus AH1252 at 40 ug/ml by time kill analysis in presence of 50% rat serum. Format: functional, organism-based.
For data set [8], the system named is Staphylococcus aureus. Briefly: Bactericidal activity against thymidine kinase-deficient methicillin-resistant Staphylococcus aureus AH1252 at 40 ug/ml by time kill analysis in presence of 50% human serum. It counts as functional, organism-based.
For data set [9], the system named is Staphylococcus aureus. Kind of data set: Bactericidal activity against thymidine kinase-deficient methicillin-resistant Staphylococcus aureus AH1252 infected in in vitro rat fibrin clot model assessed as reduction in bacterial colony at 3.5 ug/ml after 48 hrs. It counts as functional, organism-based.
Data set [10] has as its system Staphylococcus aureus. Briefly: Bactericidal activity against methicillin-resistant Staphylococcus aureus AW6 infected in in vitro human fibrin clot model assessed as log reduction in bacterial colony at 3.5 ug/ml after 24 hrs. Format: functional.
For data set [11], the system named is Staphylococcus aureus. Briefly: Bactericidal activity against thymidine kinase-deficient methicillin-resistant Staphylococcus aureus AH1252 infected in in vitro human fibrin clot model assessed as log reduction in bacterial colony at 3.5 ug/ml after 24 hrs. It counts as functional.
The nature of data set [12]: Plasma protein binding in human. The following applies: read-out: PPB (converted). It counts as ADME, cell-free.
Data set [13] concerns Staphylococcus aureus. Kind of data set: Bactericidal activity against methicillin-resistant Staphylococcus aureus AW6 at 3.5 ug/ml by time kill analysis in presence of 50% human serum and 1 ug/ml thymidine. It counts as functional, organism-based.
Data set [14] has as its system Staphylococcus aureus. Briefly: Antimicrobial activity against thymidine kinase-deficient methicillin-resistant Staphylococcus aureus AH1252 grown on CAMHB media after 24 hrs by broth microdilution method in presence of 50% human serum and 1 ug/ml thymidine. The following applies: AH1252, 24 h. Format: functional. For orientation: In broth dilution the organism is exposed to a series of concentrations in liquid medium.

The subject of data set [15] is Staphylococcus aureus. Briefly: Bactericidal activity against methicillin-resistant Staphylococcus aureus AW6 at 3.5 ug/ml by time kill analysis in presence of 50% rat serum and 1 ug/ml thymidine. It counts as functional, organism-based.
The test system of data set [16] is Staphylococcus aureus. Kind of data set: Antimicrobial activity against methicillin-resistant Staphylococcus aureus AW6 grown on CAMHB media after 24 hrs by broth microdilution method. Format: functional. The following applies: AW6, 24 h.
The subject of data set [17] is Staphylococcus aureus. Kind of data set: Antimicrobial activity against methicillin-resistant Staphylococcus aureus AW6 grown on CAMHB media after 24 hrs by broth microdilution method in presence of 0.2 U/ml thymidine phosphorylase. Format: functional. The following applies: AW6, 24 h.
For data set [18], the system named is Staphylococcus aureus. Briefly: Antimicrobial activity against methicillin-resistant Staphylococcus aureus AW6 grown on CAMHB media after 24 hrs by broth microdilution method in presence of 50% rat serum. Format: functional. The following applies: AW6, 24 h.
For data set [19], the system named is Staphylococcus aureus. Briefly: Antimicrobial activity against methicillin-resistant Staphylococcus aureus AW6 grown on CAMHB media after 24 hrs by broth microdilution method in presence of 50% rat serum and 0.2 U/ml thymidine phosphorylase. It counts as functional. The following applies: AW6, 24 h.
Data set [20] concerns Staphylococcus aureus. Kind of data set: Antimicrobial activity against methicillin-resistant Staphylococcus aureus AW6 grown on CAMHB media after 24 hrs by broth microdilution method in presence of protein depleted rat serum. Format: functional. The following applies: AW6, 24 h.
Data set [21] concerns Staphylococcus aureus. Kind of data set: Antimicrobial activity against methicillin-resistant Staphylococcus aureus AW6 grown on CAMHB media after 24 hrs by broth microdilution method in presence of 50% human serum. Format: functional. The following applies: AW6, 24 h.
Data set [22] has as its system Staphylococcus aureus. Kind of data set: Antimicrobial activity against methicillin-resistant Staphylococcus aureus AW6 grown on CAMHB media after 24 hrs by broth microdilution method in presence of 50% human serum and 0.2 U/ml thymidine phosphorylase. Format: functional. The following applies: AW6, 24 h.
Data set [23] relates to Staphylococcus aureus. Kind of data set: Antimicrobial activity against methicillin-resistant Staphylococcus aureus AW6 grown on CAMHB media after 24 hrs by broth microdilution method in presence of protein depleted human serum. Format: functional. The following applies: AW6, 24 h.
Data set [24] deals with Staphylococcus aureus. Briefly: Antimicrobial activity against thymidine kinase-deficient methicillin-resistant Staphylococcus aureus AH1252 grown on CAMHB media after 24 hrs by broth microdilution method. It counts as functional. The following applies: AH1252, 24 h.
The subject of data set [25] is Staphylococcus aureus. Kind of data set: Antimicrobial activity against thymidine kinase-deficient methicillin-resistant Staphylococcus aureus AH1252 grown on CAMHB media after 24 hrs by broth microdilution method in presence of 0.2 U/ml thymidine phosphorylase. It counts as functional. The following applies: AH1252, 24 h.
For data set [26], the system named is Staphylococcus aureus. Kind of data set: Antimicrobial activity against thymidine kinase-deficient methicillin-resistant Staphylococcus aureus AH1252 grown on CAMHB media after 24 hrs by broth microdilution method in presence of 50% rat serum. The following applies: AH1252, 24 h. Format: functional.
In data set [27] the test system is Staphylococcus aureus. Kind of data set: Antimicrobial activity against thymidine kinase-deficient methicillin-resistant Staphylococcus aureus AH1252 grown on CAMHB media after 24 hrs by broth microdilution method in presence of 50% rat serum and 0.2 U/ml thymidine phosphorylase. It counts as functional. The following applies: AH1252, 24 h.
Data set [28] deals with Staphylococcus aureus. Briefly: Antimicrobial activity against thymidine kinase-deficient methicillin-resistant Staphylococcus aureus AH1252 grown on CAMHB media after 24 hrs by broth microdilution method in presence of protein depleted rat serum. Format: functional. The following applies: AH1252, 24 h.
In data set [29] the test system is Staphylococcus aureus. Kind of data set: Antimicrobial activity against thymidine kinase-deficient methicillin-resistant Staphylococcus aureus AH1252 grown on CAMHB media after 24 hrs by broth microdilution method in presence of 50% human serum. Format: functional. The following applies: AH1252, 24 h.
Data set [30] has as its system Staphylococcus aureus. Kind of data set: Antimicrobial activity against thymidine kinase-deficient methicillin-resistant Staphylococcus aureus AH1252 grown on CAMHB media after 24 hrs by broth microdilution method in presence of 50% human serum and 0.2 U/ml thymidine phosphorylase. It counts as functional. The following applies: AH1252, 24 h.
Data set [31] concerns Staphylococcus aureus. Briefly: Antimicrobial activity against thymidine kinase-deficient methicillin-resistant Staphylococcus aureus AH1252 grown on CAMHB media after 24 hrs by broth microdilution method in presence of protein depleted human serum. The following applies: AH1252, 24 h. It counts as functional.
A short description of data set [32]: Protein binding in human serum. It counts as ADME, cell-free. The following applies: read-out: PB (converted).
A short description of data set [33]: Protein binding in rat serum. The following applies: read-out: PB (converted). It counts as ADME, cell-free.
The test system of data set [34] is Staphylococcus aureus. Kind of data set: Antimicrobial activity against methicillin-resistant Staphylococcus aureus AW6 grown on CAMHB media after 24 hrs by broth microdilution method in presence of 50% human serum and 1 ug/ml thymidine. It counts as functional. The following applies: AW6, 24 h.
Data set [35] deals with Staphylococcus aureus. Briefly: […] activity against methicillin-resistant Staphylococcus aureus AW6 assessed as loss of bacterial cell viability at 3.5 ug/ml by time kill analysis in presence of 50% rat serum. Format: functional.
Data set [36] has as its system Staphylococcus aureus. Briefly: Bactericidal activity against thymidine kinase-deficient methicillin-resistant Staphylococcus aureus AH1252 assessed as loss of bacterial cell viability at 3.5 ug/ml by time kill analysis in presence of 50% rat serum. It counts as functional, organism-based.
Data set [37] has as its system Staphylococcus aureus. Kind of data set: […] activity against methicillin-resistant Staphylococcus aureus AW6 assessed as loss of bacterial cell viability at 3.5 ug/ml measured within 8 hrs by time kill analysis in presence of 50% human serum. Format: functional.
The test system of data set [38] is Staphylococcus aureus. Briefly: Bactericidal activity against thymidine kinase-deficient methicillin-resistant Staphylococcus aureus AH1252 assessed as loss of bacterial cell viability at 3.5 ug/ml measured within 8 hrs by time kill analysis in presence of 50% human serum. It counts as functional.
The subject of data set [39] is Staphylococcus aureus. Kind of data set: Bactericidal activity against methicillin-resistant Staphylococcus aureus AW6 at 3.5 ug/ml by time kill analysis in presence of 50% rat serum and 0.2 U/ml thymidine phosphorylase. Format: functional, organism-based.
Data set [40] concerns Staphylococcus aureus. Briefly: Bacteriostatic activity against methicillin-resistant Staphylococcus aureus AW6 infected in in vitro rat fibrin clot model assessed as reduction in bacterial colony at 3.5 ug/ml after 48 hrs. Format: functional, organism-based.

As to `CN[C@H](CC(C)C)C(=O)N[C@H]1C(=O)N[C@@H](CC(N)=O)C(=O)N[C@H]2C(=O)N[C@H]3C(=O)N[C@H](C(=O)N[C@H](C(=O)O)c4cc(O)cc(O)c4-c4cc3ccc4O)[C@H](O)c3ccc(c(Cl)c3)Oc3cc2cc(c3O[C@@H]2O[C@H](CO)[C@@H](O)[C@H](O)[C@H]2O[C@H]2C[C@](C)(N)[C@H](O)[C@H](C)O2)Oc2ccc(cc2Cl)[C@H]1O`, the outcome with Staphylococcus aureus [1], in the data set with Staphylococcus aureus [2], with Staphylococcus aureus [3], with Staphylococcus aureus [4], in the data set on Staphylococcus aureus [5] and in the data set on Staphylococcus aureus [6] was Active. Besides, the outcome in the data set on Staphylococcus aureus [7] and in the data set on Staphylococcus aureus [8] was Active.
Broadly, the MIC is the lowest concentration that inhibits growth of the organism. In the case of `COc1cc(Cc2cnc(N)nc2N)c2c(c1OC)OC(C1CC1)C=C2` (stereo not given) [ICLAPRIM], the outcome with Staphylococcus aureus [9], with Staphylococcus aureus [36], with Staphylococcus aureus [39] and in the data set on Staphylococcus aureus [40] was Active. Further, the log10CFU/ml entry in the data set with Staphylococcus aureus [10], with Staphylococcus aureus [11], in the data set on Staphylococcus aureus [35], in the data set with Staphylococcus aureus [37] and in the data set with Staphylococcus aureus [38] was “>=3” each time. Moreover, the fraction unbound in data set [12] is 0.07; in data set [32], 0.05; in data set [33] it was 0.1. Moreover, the result in the data set on Staphylococcus aureus [13] and in the data set with Staphylococcus aureus [15] was inactive. The MIC with Staphylococcus aureus [14] is 0.03 µg/mL; against Staphylococcus aureus [16], 0.06 µg/mL (≈ 0.169 µM); with Staphylococcus aureus [17] it was 0.03 µg/mL; with Staphylococcus aureus [18] it was more than 2 µg/mL; in the data set on Staphylococcus aureus [19], 0.06 µg/mL; with Staphylococcus aureus [20] it was more than 2 µg/mL. For the same molecule, the MIC was 0.12 µg/mL in the data set with Staphylococcus aureus [21]; 0.2 µg/mL in the data set on Staphylococcus aureus [22]; 0.03 µg/mL with Staphylococcus aureus [23]; 0.03 µg/mL (≈ 0.0846 µM) in the data set with Staphylococcus aureus [24]; 0.03 µg/mL with Staphylococcus aureus [25]; 0.03 µg/mL in the data set with Staphylococcus aureus [26]. Besides, the MIC in the data set on Staphylococcus aureus [27] was 0.03 µg/mL; in the data set with Staphylococcus aureus [28], 0.06 µg/mL; in the data set on Staphylococcus aureus [29], 0.06 µg/mL; with Staphylococcus aureus [30], 0.06 µg/mL; in the data set on Staphylococcus aureus [31], 0.03 µg/mL; in the data set on Staphylococcus aureus [34] it was more than 2 µg/mL.
